This note sets out measurements from publication PMC9749938, “Alkyltriphenylphosphonium turns naphthoquinoneimidazoles into potent membrane depolarizers against mycobacteria” (RSC Medicinal Chemistry, 2022).

Each structure is given as a SMILES string.

The term EC50 denotes the concentration needed to bring the measured effect to its halfway point.

In the assay the test system is inverted membrane vesicles of M. smegmatis mc^24517 overexpressing NDH2 (TB-ndh). In words: NADH oxidation in inverted membrane vesicles, TB-ndh. As to conditions: read-out: EC50 of activation of NADH oxidation, TB-ndh IMV. The format is biochemical.
With `Cc1nc2c(n1CCCCCCCCCCC[P+](c1ccccc1)(c1ccccc1)c1ccccc1)C(=O)c1ccccc1C2=O.[I-]` [Compound 7], the EC50 amounted to 1400 nM.
To `CCCCCCCCn1c2c([n+](CCCC)c1C)C(=O)c1ccccc1C2=O.[Br-]` [Compound 45, reference compound] belongs 200 nM.
To `CCCCn1c2c([n+](C3CCC4(CCCCC4)CC3)c1C)C(=O)c1ccccc1C2=O.[Br-]` [Compound 44, reference compound] belongs 3740 nM.
